In ChEMBL document CHEMBL4261515, “An insight into the therapeutic potential of quinazoline derivatives as anticancer agents” (2017):

System: MCF7
Assay: Potency index, ratio of cisplatin IC50 to test compound IC50 for cytotoxicity against human MCF7 cells after 48 hrs by MTT assay
Format: functional

COc1ccc(/C=C2\N=C(c3ccco3)N(n3c(C)nc4c(Br)cc(Br)cc4c3=O)C2=O)cc1
Ratio IC50: 3
